In the oligonucleotide strings, read from the 5' end, every base follows the letter of its sugar. An asterisk marks phosphorothioate; unmarked linkages are phosphodiester. Other units and linkages are bracketed, terminal groups are in braces. A string of capitals states the bases alone. e = 2'-O-(2-methoxyethyl) (MOE); [5mC] = 5-methylcytosine; d = 2'-deoxy (DNA)
Columns and labels:
human Factor XI mRNA [1] = assay: Dose-dependent inhibition in HepG2 cells, lipofectin (Example 4); type: cell-based; settings: 16 hours
Summary of the method: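 HepG2 cells at 10,000 per well were lipofectin-transfected with 9.375, 18.75, 37.5 or 75 nM antisense oligonucleotide for about 16 h. Factor XI mRNA was quantified by real-time PCR (primer probe set RTS 2966) and normalised to RIBOGREEN total RNA. Values are percent inhibition versus untreated cells.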

human Factor XI mRNA [2] = assay: Dose-dependent inhibition in HepG2 cells, electroporation (Example 4); type: cell-based; settings: 16 hours
Summary of the method: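 HepG2 cells electroporated with 0.7, 2.2, 6.7 or 20 μM antisense gapmer and harvested after ~16 h. Factor XI mRNA quantified by qRT-PCR (primer probe set RTS 2966), normalised to total RNA (RIBOGREEN). Reported as percent inhibition versus untreated control cells.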

human Factor XI mRNA [3] = assay: Dose-dependent inhibition in cyno primary hepatocytes, electroporation (Example 6); type: cell-based, cynomolgus monkey; settings: approx. 16 h
Protocol: Cells were plated at a density of 35,000 cells per well and transfected via electroporation with 0.74 nM, 2.2 nM, 6.7 nM, 20 nM, 60 nM, and 180 nM concentrations of antisense oligonucleotide, as specified in Table 13. After a treatment period of approximately 16 hours, RNA was isolated from the cells and human Factor XI mRNA levels were measured by quantitative real-time PCR. Human Factor XI primer probe set RTS 2966 was used to measure mRNA levels. Factor XI mRNA levels were adjusted according to total RNA content, as measured by RIBOGREEN®. Results are presented as percent inhibition of human Factor XI, relative to untreated control cells.

human Factor XI mRNA [4] = assay: Dose-dependent inhibition in HepB3 cells, electroporation (Example 7); type: cell-based; settings: approx. 16 h
Protocol: The gapmers were also transfected via electroporation and their dose dependent inhibition of human Factor XI mRNA was measured. Cells were plated at a density of 20,000 cells per well and transfected via electroporation with 41.15 nM, 123.457 nM, 370.37 nM, 1111.11 nM, 3333.33 nM, and 10,000 nM concentrations of antisense oligonucleotide, as specified in Table 15. After a treatment period of approximately 16 hours, RNA was isolated from the cells and human Factor XI mRNA levels were measured by quantitative real-time PCR. Human Factor XI primer probe set RTS 2966 was used to measure mRNA levels. Factor XI mRNA levels were adjusted according to total RNA content, as measured by RIBOGREEN®. Results are presented as percent inhibition of human Factor XI, relative to untreated control cells.

[5] = Tolerability in Sprague-Dawley rats: kidney function (Example 19); type: in vivo; settings: Sprague Dawley rats; for urine protein/creatinine ratio, After: after 50 mg/kg s.c. twice per week for 6 weeks; for urine protein/creatinine ratio, Before: before antisense oligonucleotide treatment
Text: Urine samples were taken before the start of treatment.

human Factor XI mRNA [6] = assay: Antisense inhibition in HepG2 cells by microwalk gapmers, 8,000 nM, electroporation (Example 14); type: cell-based; settings: HepG2 cells, 8,000 nM
Summary of the method: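 HepG2 cells electroporated with 8,000 nM 2′-MOE phosphorothioate gapmer (5-10-5, 5-8-5 or 6-8-6). Factor XI mRNA measured after ~24 h by qRT-PCR, normalised to RIBOGREEN total RNA. Reported as percent inhibition versus untreated cells.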

Substance: 416838 (antisense GCAACCGGGATGATGAGTGC; 5-10-5 gapmer, wing sugar chemistry not given here, further chemistry not given here) [compound 416838]
- percent inhibition of Factor XI mRNA, relative to untreated control cells (human Factor XI mRNA [1]; 9.375 nM): 31%
- percent inhibition of Factor XI mRNA, relative to untreated control cells (human Factor XI mRNA [1]; 18.75 nM): 51%
- percent inhibition of Factor XI mRNA, relative to untreated control cells (human Factor XI mRNA [1]; 37.5 nM): 64%
- percent inhibition of Factor XI mRNA, relative to untreated control cells (human Factor XI mRNA [1]; 75 nM): 86%
- percent inhibition of Factor XI mRNA, relative to untreated control cells (human Factor XI mRNA [2]; 0.7 μM): 5%
- percent inhibition of Factor XI mRNA, relative to untreated control cells (human Factor XI mRNA [2]; 2.2 μM): 30%
- percent inhibition of Factor XI mRNA, relative to untreated control cells (human Factor XI mRNA [2]; 6.7 μM): 55%
- percent inhibition of Factor XI mRNA, relative to untreated control cells (human Factor XI mRNA [2]; 20 μM): 83%
- percent inhibition of human Factor XI mRNA (human Factor XI mRNA [3]; 0.74 nM): 0%
- percent inhibition of human Factor XI mRNA (human Factor XI mRNA [3]; 2.2 nM): 0%
- percent inhibition of human Factor XI mRNA (human Factor XI mRNA [3]; 6.7 nM): 21%
- percent inhibition of human Factor XI mRNA (human Factor XI mRNA [3]; 20 nM): 34%
- percent inhibition of human Factor XI mRNA (human Factor XI mRNA [3]; 60 nM): 48%
- percent inhibition of human Factor XI mRNA (human Factor XI mRNA [3]; 180 nM): 62%
- percent inhibition of human Factor XI mRNA (human Factor XI mRNA [4]; 41.15 nM): 12%
- percent inhibition of human Factor XI mRNA (human Factor XI mRNA [4]; 123.457 nM): 9%
- percent inhibition of human Factor XI mRNA (human Factor XI mRNA [4]; 370.37 nM): 28%
- percent inhibition of human Factor XI mRNA (human Factor XI mRNA [4]; 1111.11 nM): 40%
- percent inhibition of human Factor XI mRNA (human Factor XI mRNA [4]; 3333.33 nM): 77%
- percent inhibition of human Factor XI mRNA (human Factor XI mRNA [4]; 10000 nM): 88%
- urine protein/creatinine ratio, After [5]: 3.7
- urine protein/creatinine ratio, Before [5]: 1.2

Substance: 416925 (antisense GGTGCACAGTTTCTGGCAGG; 3-14-3 chimeric gapmer, wing sugar chemistry not given here, further chemistry not given here) [compound 416925]
- percent inhibition of Factor XI mRNA, relative to untreated control cells (human Factor XI mRNA [1]; 9.375 nM): 13%
- percent inhibition of Factor XI mRNA, relative to untreated control cells (human Factor XI mRNA [1]; 18.75 nM): 38%
- percent inhibition of Factor XI mRNA, relative to untreated control cells (human Factor XI mRNA [1]; 37.5 nM): 59%
- percent inhibition of Factor XI mRNA, relative to untreated control cells (human Factor XI mRNA [1]; 75 nM): 75%
- percent inhibition of Factor XI mRNA, relative to untreated control cells (human Factor XI mRNA [2]; 0.7 μM): 0%
- percent inhibition of Factor XI mRNA, relative to untreated control cells (human Factor XI mRNA [2]; 2.2 μM): 40%
- percent inhibition of Factor XI mRNA, relative to untreated control cells (human Factor XI mRNA [2]; 6.7 μM): 76%
- percent inhibition of Factor XI mRNA, relative to untreated control cells (human Factor XI mRNA [2]; 20 μM): 80%
- percent inhibition of human Factor XI mRNA (human Factor XI mRNA [3]; 0.74 nM): 0%
- percent inhibition of human Factor XI mRNA (human Factor XI mRNA [3]; 2.2 nM): 9%
- percent inhibition of human Factor XI mRNA (human Factor XI mRNA [3]; 6.7 nM): 1%
- percent inhibition of human Factor XI mRNA (human Factor XI mRNA [3]; 20 nM): 48%
- percent inhibition of human Factor XI mRNA (human Factor XI mRNA [3]; 60 nM): 55%
- percent inhibition of human Factor XI mRNA (human Factor XI mRNA [3]; 180 nM): 76%
- percent inhibition of human Factor XI mRNA (human Factor XI mRNA [4]; 41.15 nM): 27%
- percent inhibition of human Factor XI mRNA (human Factor XI mRNA [4]; 123.457 nM): 39%
- percent inhibition of human Factor XI mRNA (human Factor XI mRNA [4]; 370.37 nM): 50%
- percent inhibition of human Factor XI mRNA (human Factor XI mRNA [4]; 1111.11 nM): 73%
- percent inhibition of human Factor XI mRNA (human Factor XI mRNA [4]; 3333.33 nM): 88%
- percent inhibition of human Factor XI mRNA (human Factor XI mRNA [4]; 10000 nM): 96%
- urine protein/creatinine ratio, After [5]: 4.3
- urine protein/creatinine ratio, Before [5]: 1.0

Substance: 416999 (antisense GCACAGTTTCTGGCAGGCCT; 2-13-5 gapmer, wing sugar chemistry not given here, further chemistry not given here) [compound 416999]
- percent inhibition of Factor XI mRNA, relative to untreated control cells (human Factor XI mRNA [1]; 9.375 nM): 24%
- percent inhibition of Factor XI mRNA, relative to untreated control cells (human Factor XI mRNA [1]; 18.75 nM): 37%
- percent inhibition of Factor XI mRNA, relative to untreated control cells (human Factor XI mRNA [1]; 37.5 nM): 55%
- percent inhibition of Factor XI mRNA, relative to untreated control cells (human Factor XI mRNA [1]; 75 nM): 73%
- percent inhibition of Factor XI mRNA, relative to untreated control cells (human Factor XI mRNA [2]; 0.7 μM): 20%
- percent inhibition of Factor XI mRNA, relative to untreated control cells (human Factor XI mRNA [2]; 2.2 μM): 42%
- percent inhibition of Factor XI mRNA, relative to untreated control cells (human Factor XI mRNA [2]; 6.7 μM): 77%
- percent inhibition of Factor XI mRNA, relative to untreated control cells (human Factor XI mRNA [2]; 20 μM): 88%
- percent inhibition of human Factor XI mRNA (human Factor XI mRNA [3]; 0.74 nM): 3%
- percent inhibition of human Factor XI mRNA (human Factor XI mRNA [3]; 2.2 nM): 40%
- percent inhibition of human Factor XI mRNA (human Factor XI mRNA [3]; 6.7 nM): 36%
- percent inhibition of human Factor XI mRNA (human Factor XI mRNA [3]; 20 nM): 62%
- percent inhibition of human Factor XI mRNA (human Factor XI mRNA [3]; 60 nM): 67%
- percent inhibition of human Factor XI mRNA (human Factor XI mRNA [3]; 180 nM): 82%
- percent inhibition of human Factor XI mRNA (human Factor XI mRNA [4]; 41.15 nM): 31%
- percent inhibition of human Factor XI mRNA (human Factor XI mRNA [4]; 123.457 nM): 45%
- percent inhibition of human Factor XI mRNA (human Factor XI mRNA [4]; 370.37 nM): 62%
- percent inhibition of human Factor XI mRNA (human Factor XI mRNA [4]; 1111.11 nM): 78%
- percent inhibition of human Factor XI mRNA (human Factor XI mRNA [4]; 3333.33 nM): 94%
- percent inhibition of human Factor XI mRNA (human Factor XI mRNA [4]; 10000 nM): 97%
- urine protein/creatinine ratio, After [5]: 9.1
- urine protein/creatinine ratio, Before [5]: 1.3

Substance: 417002 (antisense GGTGCACAGTTTCTGGCAGG; 2-13-5 gapmer, wing sugar chemistry not given here, further chemistry not given here) [compound 417002]
- percent inhibition of Factor XI mRNA, relative to untreated control cells (human Factor XI mRNA [1]; 9.375 nM): 35%
- percent inhibition of Factor XI mRNA, relative to untreated control cells (human Factor XI mRNA [1]; 18.75 nM): 52%
- percent inhibition of Factor XI mRNA, relative to untreated control cells (human Factor XI mRNA [1]; 37.5 nM): 67%
- percent inhibition of Factor XI mRNA, relative to untreated control cells (human Factor XI mRNA [1]; 75 nM): 70%
- percent inhibition of Factor XI mRNA, relative to untreated control cells (human Factor XI mRNA [2]; 0.7 μM): 32%
- percent inhibition of Factor XI mRNA, relative to untreated control cells (human Factor XI mRNA [2]; 2.2 μM): 38%
- percent inhibition of Factor XI mRNA, relative to untreated control cells (human Factor XI mRNA [2]; 6.7 μM): 82%
- percent inhibition of Factor XI mRNA, relative to untreated control cells (human Factor XI mRNA [2]; 20 μM): 91%
- percent inhibition of human Factor XI mRNA (human Factor XI mRNA [3]; 0.74 nM): 32%
- percent inhibition of human Factor XI mRNA (human Factor XI mRNA [3]; 2.2 nM): 16%
- percent inhibition of human Factor XI mRNA (human Factor XI mRNA [3]; 6.7 nM): 28%
- percent inhibition of human Factor XI mRNA (human Factor XI mRNA [3]; 20 nM): 38%
- percent inhibition of human Factor XI mRNA (human Factor XI mRNA [3]; 60 nM): 55%
- percent inhibition of human Factor XI mRNA (human Factor XI mRNA [3]; 180 nM): 71%
- percent inhibition of human Factor XI mRNA (human Factor XI mRNA [4]; 41.15 nM): 19%
- percent inhibition of human Factor XI mRNA (human Factor XI mRNA [4]; 123.457 nM): 0%
- percent inhibition of human Factor XI mRNA (human Factor XI mRNA [4]; 370.37 nM): 31%
- percent inhibition of human Factor XI mRNA (human Factor XI mRNA [4]; 1111.11 nM): 47%
- percent inhibition of human Factor XI mRNA (human Factor XI mRNA [4]; 3333.33 nM): 86%
- percent inhibition of human Factor XI mRNA (human Factor XI mRNA [4]; 10000 nM): 93%
- urine protein/creatinine ratio, After [5]: 2.4
- urine protein/creatinine ratio, Before [5]: 1.0

Substance: 445522 (antisense eG*e[5mC]*eA*e[5mC]*eA*dG*dT*dT*dT*d[5mC]*dT*dG*dG*e[5mC]*eA*eG*eG*e[5mC]) [compound 445522]
- Percent inhibition of human Factor XI mRNA levels (human Factor XI mRNA [6]): 91%

Substance: 445531 (antisense eG*eG*e[5mC]*eA*eT*dT*dG*dG*dT*dG*d[5mC]*dA*d[5mC]*eA*eG*eT*eT*eT) [compound 445531]
- Percent inhibition of human Factor XI mRNA levels (human Factor XI mRNA [6]): 90%
